Reference: US20120214862A1, “MODULATION OF FACTOR 7 EXPRESSION” (ISIS Pharmaceuticals, Inc., priority 2009, published 2012)
In the oligonucleotide strings, read from the 5' end, every base follows the letter of its sugar. An asterisk marks phosphorothioate; unmarked linkages are phosphodiester. Other units and linkages are bracketed, terminal groups are in braces. A string of capitals states the bases alone. e = 2'-O-(2-methoxyethyl) (MOE); [5mC] = 5-methylcytosine; d = 2'-deoxy (DNA)

Legend:
Type in all cases: cell-based
[1] = test system: human Factor 7 mRNA; experiment: Dose-dependent antisense inhibition of human Factor 7 in HepB3 cells, transfection with electroporation
Method: (§1) The gapmers were also transfected via electroporation and their dose-dependent inhibition of human Factor 7 mRNA was measured. Cells were plated at a density of 20,000 cells per well and transfected via electroporation with 3.125 μM, 6.25 μM, 12.5 μM, 25 μM, 50 μM, and 100 μM concentrations of antisense oligonucleotide, as specified in Table 15. After a treatment period of approximately 16 hours, RNA was isolated from the cells and Factor 7 mRNA levels were measured by quantitative real-time PCR. Human Factor 7 primer probe set RTS 2927 was used to measure mRNA levels. Factor 7 mRNA levels were adjusted according to total RNA content, as measured by RIBOGREEN®. Results are presented as percent inhibition of Factor 7, relative to untreated control cells.
as §1, with “Cells were” for “The gapmers were also transfected via electroporation and their dose-dependent inhibition of human Factor 7 mRNA was measured. Cells were”, “in Table 16. After a” for “in Table 15. After a”, “cells and human Factor 7” for “cells and Factor 7”

[2] = test system: human Factor 7 mRNA; experiment: Antisense inhibition of human Factor 7 mRNA in HepB3 cells, lipofectin, 50 nM, real-time RT-PCR; settings: HepB3 cells
Outline: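 HepB3 cells were transfected by lipofectin with 50 nM antisense oligonucleotide and harvested after about 24 h. Factor 7 mRNA was measured by real-time RT-PCR (primer probe set RTS 2927 in some runs), normalized to RIBOGREEN total RNA, and reported as percent inhibition versus untreated control.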

[3] = test system: human Factor 7 mRNA; experiment: Dose-dependent antisense inhibition of human Factor 7 in HepB3 cells, transfection with lipofectin; settings: lipofectin, HepB3 cells, 16 hours
Outline: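 HepB3 cells (4,000/well) lipofectin-transfected with antisense oligonucleotide at 3.125 or 6.25 up to 100 nM for ~16 h. Factor 7 mRNA measured by real-time RT-PCR with primer probe set RTS 2927, adjusted to RIBOGREEN total RNA; expressed as percent inhibition versus untreated control cells.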

[4] = 3.125 μM, 16 hours (Example 7, Table 15)
[5] = 3.125 μM, 16 hours (Example 8, Table 16)
[6] = 6.25 μM, 16 hours (Example 7, Table 15)
[7] = 6.25 μM, 16 hours (Example 8, Table 16)
[8] = 12.5 μM, 16 hours (Example 7, Table 15)
[9] = 12.5 μM, 16 hours (Example 8, Table 16)
[10] = 25 μM, 16 hours (Example 7, Table 15)
[11] = 25 μM, 16 hours (Example 8, Table 16)
[12] = 50 μM, 16 hours (Example 7, Table 15)
[13] = 50 μM, 16 hours (Example 8, Table 16)
[14] = 100 μM, 16 hours (Example 7, Table 15)
[15] = 100 μM, 16 hours (Example 8, Table 16)
[16] = gapmers (5-10-5, 3-14-3, 2-13-5 MOE) targeted to nucleobases 4868 to 4899 of SEQ ID NO: 1
[17] = gapmers targeted to nucleobases 15188 to 15211 of SEQ ID NO: 1 (Table 13)
[18] = gapmers targeted to nucleobases 13760 to 13789 of SEQ ID NO: 1 (Table 10)

422142 (antisense eG*eA*eG*eT*eT*d[5mC]*dT*dG*d[5mC]*dA*dG*dG*dA*dG*d[5mC]*eG*eG*e[5mC]*e[5mC]*eT) [compound 422142]
percent inhibition of Factor 7 mRNA, relative to untreated control cells [1, 4]: 26% | percent inhibition of Factor 7 mRNA, relative to untreated control cells [1, 5]: 34% | percent inhibition of Factor 7 mRNA, relative to untreated control cells [1, 6]: 47% | percent inhibition of Factor 7 mRNA, relative to untreated control cells [1, 7]: 47% | percent inhibition of Factor 7 mRNA, relative to untreated control cells [1, 8]: 63% | percent inhibition of Factor 7 mRNA, relative to untreated control cells [1, 9]: 62% | percent inhibition of Factor 7 mRNA, relative to untreated control cells [1, 10]: 67% | percent inhibition of Factor 7 mRNA, relative to untreated control cells [1, 11]: 67% | percent inhibition of Factor 7 mRNA, relative to untreated control cells [1, 12]: 77% | percent inhibition of Factor 7 mRNA, relative to untreated control cells [1, 13]: 65% | percent inhibition of Factor 7 mRNA, relative to untreated control cells [1, 14]: 78% | percent inhibition of Factor 7 mRNA, relative to untreated control cells [1, 15]: 65% | % Inhibition of human Factor 7 mRNA levels [2, 16]: 73% | percent inhibition of Factor 7 mRNA, relative to untreated control cells ([3]; 3.125 nM): 16% | percent inhibition of Factor 7 mRNA, relative to untreated control cells ([3]; 12.5 nM): 51% | percent inhibition of Factor 7 mRNA, relative to untreated control cells ([3]; 25 nM): 66% | percent inhibition of Factor 7 mRNA, relative to untreated control cells ([3]; 50 nM): 72% | percent inhibition of Factor 7 mRNA, relative to untreated control cells ([3]; 100 nM): 68% | percent inhibition of Factor 7 mRNA, relative to untreated control cells [3]: 34%

422150 (antisense eG*e[5mC]*eA*dT*dG*dG*dT*dG*dA*dT*dG*d[5mC]*dT*dT*d[5mC]*dT*dG*eA*eA*eT) [compound 422150]
percent inhibition of Factor 7 mRNA, relative to untreated control cells [1, 4]: 17% | percent inhibition of Factor 7 mRNA, relative to untreated control cells [1, 5]: 0% | percent inhibition of Factor 7 mRNA, relative to untreated control cells [1, 6]: 20% | percent inhibition of Factor 7 mRNA, relative to untreated control cells [1, 7]: 31% | percent inhibition of Factor 7 mRNA, relative to untreated control cells [1, 8]: 40% | percent inhibition of Factor 7 mRNA, relative to untreated control cells [1, 9]: 53% | percent inhibition of Factor 7 mRNA, relative to untreated control cells [1, 10]: 54% | percent inhibition of Factor 7 mRNA, relative to untreated control cells [1, 11]: 67% | percent inhibition of Factor 7 mRNA, relative to untreated control cells [1, 12]: 68% | percent inhibition of Factor 7 mRNA, relative to untreated control cells [1, 13]: 77% | percent inhibition of Factor 7 mRNA, relative to untreated control cells [1, 14]: 83% | percent inhibition of Factor 7 mRNA, relative to untreated control cells [1, 15]: 86% | % Inhibition of human Factor 7 mRNA levels [2, 17]: 74% | percent inhibition of Factor 7 mRNA, relative to untreated control cells ([3]; 3.125 nM): 9% | percent inhibition of Factor 7 mRNA, relative to untreated control cells ([3]; 12.5 nM): 38% | percent inhibition of Factor 7 mRNA, relative to untreated control cells ([3]; 25 nM): 59% | percent inhibition of Factor 7 mRNA, relative to untreated control cells ([3]; 50 nM): 79% | percent inhibition of Factor 7 mRNA, relative to untreated control cells ([3]; 100 nM): 87% | percent inhibition of Factor 7 mRNA, relative to untreated control cells [3]: 23%

422152 (antisense eA*eT*eG*d[5mC]*dA*dT*dG*dG*dT*dG*dA*dT*dG*d[5mC]*dT*dT*d[5mC]*eT*eG*eA) [compound 422152]
percent inhibition of Factor 7 mRNA, relative to untreated control cells [1, 4]: 14% | percent inhibition of Factor 7 mRNA, relative to untreated control cells [1, 6]: 22% | percent inhibition of Factor 7 mRNA, relative to untreated control cells [1, 8]: 32% | percent inhibition of Factor 7 mRNA, relative to untreated control cells [1, 10]: 44% | percent inhibition of Factor 7 mRNA, relative to untreated control cells [1, 12]: 65% | percent inhibition of Factor 7 mRNA, relative to untreated control cells [1, 14]: 76% | % Inhibition of human Factor 7 mRNA levels [2, 17]: 74% | percent inhibition of Factor 7 mRNA, relative to untreated control cells ([3]; 3.125 nM): 18% | percent inhibition of Factor 7 mRNA, relative to untreated control cells ([3]; 12.5 nM): 47% | percent inhibition of Factor 7 mRNA, relative to untreated control cells ([3]; 25 nM): 67% | percent inhibition of Factor 7 mRNA, relative to untreated control cells ([3]; 50 nM): 83% | percent inhibition of Factor 7 mRNA, relative to untreated control cells ([3]; 100 nM): 89% | percent inhibition of Factor 7 mRNA, relative to untreated control cells [3]: 29%

422177 (antisense e[5mC]*e[5mC]*e[5mC]*dG*d[5mC]*d[5mC]*dG*dG*d[5mC]*dT*d[5mC]*dT*dG*d[5mC]*dT*d[5mC]*dA*eT*e[5mC]*e[5mC]) [compound 422177]
percent inhibition of Factor 7 mRNA, relative to untreated control cells [1, 4]: 3% | percent inhibition of Factor 7 mRNA, relative to untreated control cells [1, 6]: 10% | percent inhibition of Factor 7 mRNA, relative to untreated control cells [1, 8]: 29% | percent inhibition of Factor 7 mRNA, relative to untreated control cells [1, 10]: 21% | percent inhibition of Factor 7 mRNA, relative to untreated control cells [1, 12]: 31% | percent inhibition of Factor 7 mRNA, relative to untreated control cells [1, 14]: 63% | % Inhibition of human Factor 7 mRNA levels [2, 18]: 74% | percent inhibition of Factor 7 mRNA, relative to untreated control cells ([3]; 3.125 nM): 12% | percent inhibition of Factor 7 mRNA, relative to untreated control cells ([3]; 12.5 nM): 44% | percent inhibition of Factor 7 mRNA, relative to untreated control cells ([3]; 25 nM): 64% | percent inhibition of Factor 7 mRNA, relative to untreated control cells ([3]; 50 nM): 81% | percent inhibition of Factor 7 mRNA, relative to untreated control cells ([3]; 100 nM): 88% | percent inhibition of Factor 7 mRNA, relative to untreated control cells [3]: 24%

422183 (antisense eG*e[5mC]*eG*d[5mC]*d[5mC]*dA*d[5mC]*d[5mC]*d[5mC]*dG*d[5mC]*d[5mC]*dG*dG*d[5mC]*dT*d[5mC]*eT*eG*e[5mC]) [compound 422183]
percent inhibition of Factor 7 mRNA, relative to untreated control cells [1, 4]: 16% | percent inhibition of Factor 7 mRNA, relative to untreated control cells [1, 5]: 2% | percent inhibition of Factor 7 mRNA, relative to untreated control cells [1, 6]: 28% | percent inhibition of Factor 7 mRNA, relative to untreated control cells [1, 7]: 3% | percent inhibition of Factor 7 mRNA, relative to untreated control cells [1, 8]: 37% | percent inhibition of Factor 7 mRNA, relative to untreated control cells [1, 9]: 24% | percent inhibition of Factor 7 mRNA, relative to untreated control cells [1, 10]: 44% | percent inhibition of Factor 7 mRNA, relative to untreated control cells [1, 11]: 50% | percent inhibition of Factor 7 mRNA, relative to untreated control cells [1, 12]: 59% | percent inhibition of Factor 7 mRNA, relative to untreated control cells [1, 13]: 64% | percent inhibition of Factor 7 mRNA, relative to untreated control cells [1, 14]: 71% | percent inhibition of Factor 7 mRNA, relative to untreated control cells [1, 15]: 71% | % Inhibition of human Factor 7 mRNA levels [2, 18]: 79% | percent inhibition of Factor 7 mRNA, relative to untreated control cells ([3]; 3.125 nM): 28% | percent inhibition of Factor 7 mRNA, relative to untreated control cells ([3]; 12.5 nM): 56% | percent inhibition of Factor 7 mRNA, relative to untreated control cells ([3]; 25 nM): 78% | percent inhibition of Factor 7 mRNA, relative to untreated control cells ([3]; 50 nM): 84% | percent inhibition of Factor 7 mRNA, relative to untreated control cells ([3]; 100 nM): 88% | percent inhibition of Factor 7 mRNA, relative to untreated control cells [3]: 37%

422215 (antisense eG*eT*eT*d[5mC]*dT*dG*d[5mC]*dA*dG*dG*dA*dG*d[5mC]*dG*dG*d[5mC]*d[5mC]*eT*eA*eA) [compound 422215]
percent inhibition of Factor 7 mRNA, relative to untreated control cells [1, 4]: 11% | percent inhibition of Factor 7 mRNA, relative to untreated control cells [1, 6]: 9% | percent inhibition of Factor 7 mRNA, relative to untreated control cells [1, 8]: 31% | percent inhibition of Factor 7 mRNA, relative to untreated control cells [1, 10]: 50% | percent inhibition of Factor 7 mRNA, relative to untreated control cells [1, 12]: 68% | percent inhibition of Factor 7 mRNA, relative to untreated control cells [1, 14]: 84% | % Inhibition of human Factor 7 mRNA levels [2, 16]: 73% | percent inhibition of Factor 7 mRNA, relative to untreated control cells ([3]; 3.125 nM): 13% | percent inhibition of Factor 7 mRNA, relative to untreated control cells ([3]; 12.5 nM): 54% | percent inhibition of Factor 7 mRNA, relative to untreated control cells ([3]; 25 nM): 65% | percent inhibition of Factor 7 mRNA, relative to untreated control cells ([3]; 50 nM): 84% | percent inhibition of Factor 7 mRNA, relative to untreated control cells ([3]; 100 nM): 82% | percent inhibition of Factor 7 mRNA, relative to untreated control cells [3]: 30%

422217 (antisense eG*eA*eG*dT*dT*d[5mC]*dT*dG*d[5mC]*dA*dG*dG*dA*dG*d[5mC]*dG*dG*e[5mC]*e[5mC]*eT) [compound 422217]
percent inhibition of Factor 7 mRNA, relative to untreated control cells [1, 4]: 15% | percent inhibition of Factor 7 mRNA, relative to untreated control cells [1, 6]: 19% | percent inhibition of Factor 7 mRNA, relative to untreated control cells [1, 8]: 29% | percent inhibition of Factor 7 mRNA, relative to untreated control cells [1, 10]: 55% | percent inhibition of Factor 7 mRNA, relative to untreated control cells [1, 12]: 61% | percent inhibition of Factor 7 mRNA, relative to untreated control cells [1, 14]: 83% | % Inhibition of human Factor 7 mRNA levels [2, 16]: 75% | percent inhibition of Factor 7 mRNA, relative to untreated control cells ([3]; 3.125 nM): 8% | percent inhibition of Factor 7 mRNA, relative to untreated control cells ([3]; 12.5 nM): 45% | percent inhibition of Factor 7 mRNA, relative to untreated control cells ([3]; 25 nM): 63% | percent inhibition of Factor 7 mRNA, relative to untreated control cells ([3]; 50 nM): 79% | percent inhibition of Factor 7 mRNA, relative to untreated control cells ([3]; 100 nM): 83% | percent inhibition of Factor 7 mRNA, relative to untreated control cells [3]: 18%
